Literature values in patent US20030077264A1, “Antimicrobial blood treatment using allicin and related compounds” (priority 2001, published 2003).

Legend:
Helicobacter pylori = settings: in medium
[1] = buffer

For “thio-2-propene-1-sulfinic acid S-allyl ester [Allicin]”, the minimum inhibitory concentration (Helicobacter pylori) is given as 4.0 µg/mL and the half-life [1] is given as 30 to 40 days.
